# From patent publication US8541407B2 (ArQule, Inc., priority 2010, dated 2013)
# Where a name gives a salt, the structure may show the parent alone.
# Biological target: AKT1 (Homo sapiens (Human), UniProt P31749)
# Test: Inactive Akt Alpha Screen Assay
# Settings: non *labeled: Akt Alpha Screen assay; read-out: AKT1 biochemical assay, IC50
# Method in brief: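 AKT1 activated in situ by PDK1, MAPKAPK2, lipid vesicles and ATP, then phosphorylating biotinylated crosstide for 30 min at room temperature. Stopped with 10 mM EDTA; phosphopeptide detected by AlphaScreen using phospho-AKT substrate antibody (1:350), Protein A acceptor and streptavidin donor beads, 90 min dark, ex 640/em 570 nm.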
# AKT1, sequence (P31749 whole entry): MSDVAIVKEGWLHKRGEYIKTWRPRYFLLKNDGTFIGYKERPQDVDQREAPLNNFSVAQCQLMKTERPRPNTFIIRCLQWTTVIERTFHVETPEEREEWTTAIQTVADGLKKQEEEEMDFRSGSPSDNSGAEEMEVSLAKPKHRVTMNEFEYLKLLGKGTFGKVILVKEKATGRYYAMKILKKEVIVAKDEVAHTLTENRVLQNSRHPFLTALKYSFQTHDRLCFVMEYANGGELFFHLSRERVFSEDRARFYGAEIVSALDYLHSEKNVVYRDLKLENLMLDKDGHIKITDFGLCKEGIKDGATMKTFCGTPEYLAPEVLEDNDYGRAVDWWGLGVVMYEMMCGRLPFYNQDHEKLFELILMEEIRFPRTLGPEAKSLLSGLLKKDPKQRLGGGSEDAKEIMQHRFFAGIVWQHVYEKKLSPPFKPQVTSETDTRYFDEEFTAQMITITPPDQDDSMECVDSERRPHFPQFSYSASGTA
compound,measurement,value
"O=S(=O)(NC1CCN(Cc2ccc(-c3nnc4n3-c3cccnc3Nc3ccccc3-4)cc2)CC1)C1CC1 [Example 149, N-(1-(4-(9H-benzo[f]pyrido[2,3-b][1,2,4]triazolo[4,3-d][1,4]diazepin-3-yl)benzyl)piperidin-4-yl)cyclopropanesulfonamide]",IC50,5300 nM
"c1ccc2c(c1)Nc1ncccc1-n1c(-c3ccc(CNCC4CC4)cc3)nnc1-2 [Example 93, N-(4-(9H-benzo[f]pyrido[2,3-b][1,2,4]triazolo[4,3-d][1,4]diazepin-3-yl)benzyl)-1-cyclopropylmethanamine]",IC50,6700 nM
"Cc1ccc2c(c1)Nc1ncccc1-n1c(-c3ccc(C4(N)CCC4)cc3)nnc1-2 [Example 223, 1-(4-(11-methyl-9H-benzo[f]pyrido[2,3-b][1,2,4]triazolo[4,3-d][1,4]diazepin-3-yl)phenyl)cyclobutanamine]",IC50,490 nM
"O=C(c1ccc(F)c(F)c1)N1CCN(Cc2ccc(-c3nnc4n3-c3cccnc3Nc3ccccc3-4)cc2)CC1 [Example 143, (4-(4-(9H-benzo[f]pyrido[2,3-b][1,2,4]triazolo[4,3-d][1,4]diazepin-3-yl)benzyl)piperazin-1-yl)(3,4-difluorophenyl)methanone]",IC50,4900 nM
"OCc1ccc(-c2nnc3n2-c2cccnc2Nc2ccc(Br)cc2-3)cc1 [Example 225, (4-(12-bromo-9H-benzo[f]pyrido[2,3-b][1,2,4]triazolo[4,3-d][1,4]diazepin-3-yl)phenyl)methanol]",IC50,5200 nM
"O=C1CCCN1CCCNCc1ccc(-c2nnc3n2-c2cccnc2Nc2ccccc2-3)cc1 [Example 78, 1-(3-((4-(9H-benzo[f]pyrido[2,3-b][1,2,4]triazolo[4,3-d][1,4]diazepin-3-yl)benzyl)amino)propyl)pyrrolidin-2-one]",IC50,4400 nM
"Cc1ccc2c(c1)-c1nnc(-c3ccc(C4(N)CCC4)cc3)n1-c1cccnc1N2 [Example 216, 1-(4-(12-methyl-9H-benzo[f]pyrido[2,3-b][1,2,4]triazolo[4,3-d][1,4]diazepin-3-yl)phenyl)cyclobutanamine]",IC50,960 nM
"Nc1ccc(-c2nnc3n2-c2ccccc2Nc2ccccc2-3)cc1 [Example 22, 4-(9H-dibenzo[b,f][1,2,4]triazolo[4,3-d][1,4]diazepin-3-yl)aniline]",IC50,1800 nM
"Cc1cc(C(=O)N2CCN(Cc3ccc(-c4nnc5n4-c4cccnc4Nc4ccccc4-5)cc3)CC2)no1 [Example 142, (4-(4-(9H-benzo[f]pyrido[2,3-b][1,2,4]triazolo[4,3-d][1,4]diazepin-3-yl)benzyl)piperazin-1-yl)(5-methylisoxazol-3-yl)methanone]",IC50,2900 nM
"COc1ccc(S(=O)(=O)NCc2ccc(-c3nnc4n3-c3cccnc3Nc3ccccc3-4)cc2)cc1 [Example 102, N-(4-(9H-benzo[f]pyrido[2,3-b][1,2,4]triazolo[4,3-d][1,4]diazepin-3-yl)benzyl)-4-methoxybenzenesulfonamide]",IC50,800 nM
"OC1(c2ccccc2)CCN(Cc2ccc(-c3nnc4n3-c3cccnc3Nc3ccccc3-4)cc2)CC1 [Example 80, 1-(4-(9H-benzo[f]pyrido[2,3-b][1,2,4]triazolo[4,3-d][1,4]diazepin-3-yl)benzyl)-4-phenylpiperidin-4-ol]",IC50,1900 nM
"CC(C)(C)c1ccc(-c2nnc3n2-c2cccnc2Nc2ccccc2-3)cc1 [Example 7, 3-(4-(tert-butyl)phenyl)-9H-benzo[f]pyrido[2,3-b][1,2,4]triazolo[4,3-d][1,4]diazepine]",IC50,4700 nM
"c1ccc(-c2nnc(C3CCN(Cc4ccc(-c5nnc6n5-c5ccccc5Nc5ccccc5-6)cc4)CC3)[nH]2)nc1 [Example 129, 3-(4-((4-(5-(pyridin-2-yl)-4H-1,2,4-triazol-3-yl)piperidin-1-yl)methyl)phenyl)-9H-dibenzo[b,f][1,2,4]triazolo[4,3-d][1,4]diazepine]",IC50,250 nM
"CC(C)(N)c1ccc(-c2nnc3n2-c2cccnc2Nc2ccccc2-3)cc1 [Example 192, 2-(4-(9H-benzo[f]pyrido[2,3-b][1,2,4]triazolo[4,3-d][1,4]diazepin-3-yl)phenyl)propan-2-amine]",IC50,340 nM
"CC(C)CCNCc1ccc(-c2nnc3n2-c2cccnc2Nc2ccccc2-3)cc1 [Example 68, N-(4-(9H-benzo[f]pyrido[2,3-b][1,2,4]triazolo[4,3-d][1,4]diazepin-3-yl)benzyl)-3-methylbutan-1-amine]",IC50,4400 nM
"Nc1cc(-c2nnc3n2-c2cccnc2Nc2ccccc2-3)ccn1 [Example 3, 4-(9H-benzo[f]pyrido[2,3-b][1,2,4]triazolo[4,3-d][1,4]diazepin-3-yl)pyridin-2-amine]",IC50,13000 nM
"c1ccc2c(c1)Nc1ncccc1-n1c(-c3ccc(CN4CCCC4)cc3)nnc1-2 [Example 65, 3-(4-(pyrrolidin-1-ylmethyl)phenyl)-9H-benzo[f]pyrido[2,3-b][1,2,4]triazolo[4,3-d][1,4]diazepine]",IC50,4300 nM
"COc1ccccc1C(=O)N1CCN(Cc2ccc(-c3nnc4n3-c3cccnc3Nc3ccccc3-4)cc2)CC1 [Example 134, (4-(4-(9H-benzo[f]pyrido[2,3-b][1,2,4]triazolo[4,3-d][1,4]diazepin-3-yl)benzyl)piperazin-1-yl)(2-methoxyphenyl)methanone]",IC50,430 nM
"N#Cc1ccc(C(=O)N2CCN(Cc3ccc(-c4nnc5n4-c4cccnc4Nc4ccccc4-5)cc3)CC2)cc1 [Example 139, 4-(4-(4-(9H-benzo[f]pyrido[2,3-b][1,2,4]triazolo[4,3-d][1,4]diazepin-3-yl)benzyl)piperazine-1-carbonyl)benzonitrile]",IC50,990 nM
"O=C(Nc1ccc(-c2nnc3n2-c2cccnc2Nc2ccccc2-3)cc1)c1ccc(F)c(C(F)(F)F)c1 [Example 46, N-(4-(9H-benzo[f]pyrido[2,3-b][1,2,4]triazolo[4,3-d][1,4]diazepin-3-yl)phenyl)-4-fluoro-3-(trifluoromethyl)benzamide]",IC50,5300 nM
"O=C(Nc1ccc(F)cc1)NC1CCN(Cc2ccc(-c3nnc4n3-c3cccnc3Nc3ccccc3-4)cc2)CC1 [Example 165, 1-(1-(4-(9H-benzo[f]pyrido[2,3-b][1,2,4]triazolo[4,3-d][1,4]diazepin-3-yl)benzyl)piperidin-4-yl)-3-(4-fluorophenyl)urea]",IC50,330 nM
"O=C(c1ccccc1F)N1CCN(Cc2ccc(-c3nnc4n3-c3cccnc3Nc3ccccc3-4)cc2)CC1 [Example 141, (4-(4-(9H-benzo[f]pyrido[2,3-b][1,2,4]triazolo[4,3-d][1,4]diazepin-3-yl)benzyl)piperazin-1-yl)(2-fluorophenyl)methanone]",IC50,450 nM
"O=C(CCc1ccccc1)Nc1ccc(-c2nnc3n2-c2cccnc2Nc2ccccc2-3)cc1 [Example 54, N-(4-(9H-benzo[f]pyrido[2,3-b][1,2,4]triazolo[4,3-d][1,4]diazepin-3-yl)phenyl)-3-phenylpropanamide]",IC50,1800 nM
"COc1ccccc1C(=O)Nc1ccc(-c2nnc3n2-c2cccnc2Nc2ccccc2-3)cc1 [Example 41, N-(4-(9H-benzo[f]pyrido[2,3-b][1,2,4]triazolo[4,3-d][1,4]diazepin-3-yl)phenyl)-2-methoxybenzamide]",IC50,520 nM
"O=C(c1ccc2c(c1)OCO2)N1CCN(Cc2ccc(-c3nnc4n3-c3cccnc3Nc3ccccc3-4)cc2)CC1 [Example 158, (4-(4-(9H-benzo[f]pyrido[2,3-b][1,2,4]triazolo[4,3-d][1,4]diazepin-3-yl)benzyl)piperazin-1-yl)(benzo[d][1,3]dioxol-5-yl)methanone]",IC50,6900 nM
"COc1cccc(S(=O)(=O)NC2CCN(Cc3ccc(-c4nnc5n4-c4cccnc4Nc4ccccc4-5)cc3)CC2)c1 [Example 150, N-(1-(4-(9H-benzo[f]pyrido[2,3-b][1,2,4]triazolo[4,3-d][1,4]diazepin-3-yl)benzyl)piperidin-4-yl)-3-methoxybenzenesulfonamide]",IC50,3000 nM
"NCc1ccc(-c2nnc3n2-c2cccnc2Nc2ccc(Br)cc2-3)cc1 [Example 227, (4-(12-bromo-9H-benzo[f]pyrido[2,3-b][1,2,4]triazolo[4,3-d][1,4]diazepin-3-yl)phenyl)methanamine]",IC50,6100 nM
"CC(C)CS(=O)(=O)NC1CCN(Cc2ccc(-c3nnc4n3-c3cccnc3Nc3ccccc3-4)cc2)CC1 [Example 154, N-(1-(4-(9H-benzo[f]pyrido[2,3-b][1,2,4]triazolo[4,3-d][1,4]diazepin-3-yl)benzyl)piperidin-4-yl)-2-methylpropane-1-sulfonamide]",IC50,6400 nM
"Nc1ccc(-c2nnc3n2-c2cccnc2Nc2ccccc2-3)cn1 [Example 5, hydrochloride]",IC50,2100 nM
"Cc1ccccc1CNC(=O)NC1CCN(Cc2ccc(-c3nnc4n3-c3cccnc3Nc3ccccc3-4)cc2)CC1 [Example 181, 1-(1-(4-(9H-benzo[f]pyrido[2,3-b][1,2,4]triazolo[4,3-d][1,4]diazepin-3-yl)benzyl)piperidin-4-yl)-3-(2-methylbenzyl)urea]",IC50,1200 nM
"CCN(Cc1ccncc1)Cc1ccc(-c2nnc3n2-c2cccnc2Nc2ccccc2-3)cc1 [Example 70, N-(4-(9H-benzo[f]pyrido[2,3-b][1,2,4]triazolo[4,3-d][1,4]diazepin-3-yl)benzyl)-N-(pyridin-4-ylmethyl)ethanamine]",IC50,2100 nM
"FC(F)(F)c1ccc(-c2nnc3n2-c2cccnc2Nc2ccccc2-3)cc1 [Example 8, 3-(4-(trifluoromethyl)phenyl)-9H-benzo[f]pyrido[2,3-b][1,2,4]triazolo[4,3-d][1,4]diazepine]",IC50,30000 nM
"CC(=O)NC1CCN(Cc2ccc(-c3nnc4n3-c3cccnc3Nc3ccccc3-4)cc2)C1 (stereo not shown) [Example 86, N-(1-(4-(9H-benzo[f]pyrido[2,3-b][1,2,4]triazolo[4,3-d][1,4]diazepin-3-yl)benzyl)pyrrolidin-3-yl)acetamide]",IC50,3400 nM
"O=c1[nH]c(-c2ccccc2)cn1C1CCN(Cc2ccc(-c3nnc4n3-c3cccnc3Nc3ccccc3-4)cc2)CC1 [Example 191, 1-(1-(4-(9H-benzo[f]pyrido[2,3-b][1,2,4]triazolo[4,3-d][1,4]diazepin-3-yl)benzyl)piperidin-4-yl)-4-phenyl-1H-imidazol-2(3H)-one]",IC50,48 nM
